In data set [1] the test system is American dog tick (Dermacentor variabilis) nymphs. As to the kind of experiment: Efficacy against nymphal-stage American dog ticks on rats, oral. In kind it is in vivo. Particulars: oral point dose of between 5-25 mg/kg bodyweight, 48 hours after treatment. The protocol:
Evaluations were conducted using a modified version of the assay as described in Gutierrez et al., J. Med. Entomol. 43(3): 526-532 (2006). This assay may be modified by simply using different tick species (the reference describes Amblyomma americanum ticks), such as Dermacentor variabilis or Rhipicephalus sanguineus ticks, as well as different life-stages (larval, nymphal or adult). Further, the reference describes using topical application methods, but oral, transdermal and subcutaneous injection routes of administration may be used.
In these studies, adult male or female rats, approximately 300 grams in size, were randomly assigned to a treatment group or a control (untreated negative control or fipronil positive control) group. Each group consisted of three (3) to five (5) rats. […] On Day 2, approximately forty-eight (48) hours after treatment, live and dead ticks were removed from animals and counted.
Live tick counts were transformed using the natural logarithm transformation plus one (Ln count+1); addition of one to each count served to adjust for counts that were zero. […] GM percent efficacy of treatments was calculated using the following formula:
Enantiomers were evaluated for activity against American dog tick (Dermacentor variabilis) nymphs on rats. […] On Day 2, approximately forty-eight (48) hours after treatment, live and dead ticks were removed from animals and counted. […]

Data set [2] can be described thus: Tolerability of oral treatment in dogs. It is filed as in vivo, dog. The method, then: The therapeutic (knockdown) and residual efficacy of 5, administered orally at a point dose of 25 mg/kg bodyweight, was evaluated against adult American dog tick (D. variabilis) infestations on dogs. Six beagle dogs were allocated to one of two treatment groups, an untreated control group (n=4 dogs) or 5 group (n=2 dogs). On Day 0, two dogs were treated with 5 via oral gavage (25 mg/ml 5, dissolved in a solution of 55% polyethylene glycol-300, 35% propylene glycol and 10% water) at a point dose of approximately 25 mg/kg. Twenty-four (24) hours before treatment (Day −1), all dogs were infested with approximately 50 unfed, adult-stage American dog ticks (D. variabilis; approximately 50% male and 50% female). On Day 1, approximately 24 hours after treatment, thumb counts were conducted to determine the number and life-status classification of ticks present on all dogs (normal, moribund or dead; attached or detached). Ticks were not removed during thumb counts. On Day 2, approximately 48 hours after treatment, all ticks were classified and removed from dogs. Dogs were re-infested with approximately 50 unfed, adult D. variabilis ticks on Days 5 and 12, with tick classification, counts and removal on Days 7 and 14 (approximately 48 hours after each infestation).
The therapeutic (knockdown) and residual efficacy of 7 and 8, each administered orally at a point dose of 25 mg/kg bodyweight, was evaluated against adult tick (Dermacentor variabilis and Rhipicephalus sanguineus) and adult cat flea (Ctenocephalides felis) infestations on dogs. Twelve (12) male and female beagle dogs were randomly allocated to one of three treatment groups, four (4) dogs per group: Untreated control; 7, 25 mg/kg; and 8, 25 mg/kg. On Day −1, all dogs were infested with approximately 50 unfed, adult D. variabilis ticks. On Day 0, dogs were orally administered gelatin capsules containing either 7 or 8 (50% technical active, 47% microcrystalline cellulose and 3% croscarmellose sodium, w/w). Ticks were counted and classified, but not removed, on all dogs on Day 1, approximately 24 hours after treatment. On Day 2, approximately 48 hours after treatment, ticks were counted, classified and removed. Dogs were re-infested with the same number of D. variabilis ticks on Days 5, 12, 19 and 28 and tick counts were conducted on Days 7, 14, 21 and 30.
The therapeutic (knockdown) and residual efficacy of 7, administered orally at a point dose of 35 mg/kg bodyweight, was evaluated against adult tick (Dermacentor variabilis and Rhipicephalus sanguineus) and adult cat flea (Ctenocephalides felis) infestations on dogs. Twelve (12) male and female beagle dogs were allocated to either an untreated, negative control group or 7 group (n=6 dogs per group). Dogs were infested with approximately 50 unfed, adult D. variabilis ticks on Days −1, 5, 12, 19, 28, 35 and 42. On Day 0, dogs were orally administered gelatin capsules containing Compound 8194 (50% technical active, 47% microcrystalline cellulose and 3% croscarmellose sodium, w/w) at a point dose of 35 mg/kg. […] GM percent efficacy of treatments against both tick species and fleas was calculated using the following formula: […]
The therapeutic efficacy and speed of kill of 7, administered orally at a point dose of 20 mg/kg bodyweight, was evaluated against adult cat flea (Ctenocephalides felis) infestations on dogs. […]

The values below come from US8546357B2, “Boron-containing small molecules for controlling ectoparasites” (priority 2011, dated 2013).

The structures appear in SMILES notation.

As for `Cc1cc(C2=NOC(c3cc(Cl)c(Cl)c(Cl)c3)(C(F)(F)F)C2)ccc1C(=O)NCc1ccc2c(c1)B(O)OC2(C)C` (stereo not drawn) [Compound 7, N-((1-Hydroxy-3,3-dimethyl-1,3-dihydrobenzo[c][1,2]oxaborol-6-yl)methyl)-2-methyl-4-(5-(3,4,5-trichlorophenyl)-5-(trifluoromethyl)-4,5-dihydroisoxazol-3-yl)benzamide], the “Maximum in vivo efficacy (% reduction in live tick counts)” value in data set [1] is reported as 7 (100%), 8 (100%),. Also, the tolerability entry in data set [2] (Example 6, oral capsule 25 mg/kg) was “well tolerated”; in data set [2] (Example 7, oral capsule 35 mg/kg) it was “well tolerated”.
